Data set [1] concerns the target Melanin-concentrating hormone receptor 2 (Homo sapiens, UniProt Q969V1). Briefly: Inhibition constant for human Melanin concentrating hormone receptor 2.
Data set [2] concerns the target T1, Melanin-concentrating hormone receptor 1 (Homo sapiens, UniProt Q99705). Description: Inhibition constant for human Melanin concentrating hormone receptor 1.
For data set [3], the target named is T1, Melanin-concentrating hormone receptor 1. Briefly: Inhibition of [Ca2+] influx mediated by human Melanin concentrating hormone receptor 1 expressing cells. The format is functional.
Data set [4] concerns the target Melanin-concentrating hormone receptor 1 (Mus musculus, UniProt Q8JZL2). Description: Inhibition constant for mouse Melanin concentrating hormone receptor 1.
Data set [5] relates to Mus musculus. Description: Reduction in milk consumption by fasted mouse after oral administration.
The nature of data set [6]: Area under concentration time curve (from 0-24 hr) for compound in rats (n= 3) after oral administration at 10 mpk. It counts as ADME. Further details: dose 10 mpk, time < 24 hr, route oral. The settings on record: rat, in vivo, 10 mg/kg.
For data set [7], the target named is Melanin-concentrating hormone receptor 1 (Mus musculus) (UniProt Q8JZL2). Description: Ex vivo inhibition of MCH-ADO binding to Melanin concentrating hormone receptor 1 in mice (n=3) 24 hr r after 30 mg/kg peroral dose. It counts as organism-based. Also noted: dose 30 mg/kg. The settings on record: at 30 mg/kg.
Sequence of Melanin-concentrating hormone receptor 1 (Mus musculus) (Q8JZL2 whole entry): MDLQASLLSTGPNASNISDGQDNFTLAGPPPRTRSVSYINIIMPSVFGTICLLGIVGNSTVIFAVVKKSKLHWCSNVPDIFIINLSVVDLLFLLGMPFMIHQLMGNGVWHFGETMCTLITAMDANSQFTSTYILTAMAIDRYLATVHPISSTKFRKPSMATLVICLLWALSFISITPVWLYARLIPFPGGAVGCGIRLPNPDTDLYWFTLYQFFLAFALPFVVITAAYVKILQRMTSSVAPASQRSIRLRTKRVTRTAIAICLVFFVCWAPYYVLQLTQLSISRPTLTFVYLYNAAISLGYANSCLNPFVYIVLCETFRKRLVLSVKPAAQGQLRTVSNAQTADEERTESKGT
Data set [8] in a line: Clearance of compound in rats (n= 3) after intravenous administration at 10 mpk. The settings on record: rat, in vivo, 10 mg/kg. It counts as ADME, organism-based.
A short description of data set [9]: Steady state volume distribution of compound in rats (n= 3) after oral administration at 10 mpk. It counts as ADME, organism-based. The settings on record: rat, in vivo, 10 mg/kg.
In data set [10] the test system is Mus musculus. Description: In vivo efficacy of compound for food intake by the mice in 24 hr after peroral administration at 30 mpk expressed as percent of vehicle. The format is functional.
For data set [11], the system named is Mus musculus. Description: In vivo efficacy of compound for food intake by the mice in 2 h after peroral administration at 30 mpk expressed as percent of vehicle. It counts as functional.
Data set [12] in a line: Half life of compound in rats (n= 3) after intravenous administration at 10 mpk. It counts as ADME, organism-based. The settings on record: rat, in vivo, 10 mg/kg.
The subject of data set [13] is Mus musculus. Description: In vivo efficacy of compound for food intake by the mice in 6 hr after peroral administration at 30 mpk expressed as percent of vehicle. It counts as functional.
The nature of data set [14]: Bioavailability of compound in rats (n= 3) after oral administration at 10 mpk. It counts as ADME, organism-based. The settings on record: rat, in vivo, 10 mg/kg.
In data set [15] the target is Melanin-concentrating hormone receptor 1 (Mus musculus) (UniProt Q8JZL2). Description: Ex vivo inhibition of MCH-ADO binding to Melanin concentrating hormone receptor 1 in mice (n=3) 6 hr after 30 mg/kg peroral dose. The format is organism-based. Further details: dose 30 mg/kg. The settings on record: at 30 mg/kg.
Data set [16] concerns Rattus norvegicus. Briefly: Oral efficacy for reduction in body weight of rats after 4 days of administration; Range is 15-20%. It counts as functional.
For data set [17], the system named is Rattus norvegicus. Briefly: Suppression of Melanin concentrating hormone receptor-stimulated food intake in lean rats after 30 mg/kg dose. It counts as functional.
The test system of data set [18] is Rattus norvegicus. Briefly: Reduction of food intake by rats after 6 hr of administration was measured. It counts as functional.

We go through 17 compounds from ChEMBL document CHEMBL1143560, “Discovery of bicycloalkyl urea melanin concentrating hormone receptor antagonists: orally efficacious antiobesity therapeutics” (J Med Chem, 2005).

A value given as a limit tells only on which side of the number the result lay.

T1 sequence (Q99705 whole entry): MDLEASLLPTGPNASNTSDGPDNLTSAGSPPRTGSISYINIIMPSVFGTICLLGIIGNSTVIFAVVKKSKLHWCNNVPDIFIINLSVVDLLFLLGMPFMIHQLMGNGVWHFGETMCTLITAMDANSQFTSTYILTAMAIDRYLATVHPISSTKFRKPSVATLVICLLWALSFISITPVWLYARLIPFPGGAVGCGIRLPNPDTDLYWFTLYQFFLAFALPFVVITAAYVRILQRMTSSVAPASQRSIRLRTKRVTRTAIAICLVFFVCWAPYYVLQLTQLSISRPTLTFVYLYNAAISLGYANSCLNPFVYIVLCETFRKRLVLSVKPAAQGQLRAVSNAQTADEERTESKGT
Sequence of Melanin-concentrating hormone receptor 2 (Q969V1 whole entry): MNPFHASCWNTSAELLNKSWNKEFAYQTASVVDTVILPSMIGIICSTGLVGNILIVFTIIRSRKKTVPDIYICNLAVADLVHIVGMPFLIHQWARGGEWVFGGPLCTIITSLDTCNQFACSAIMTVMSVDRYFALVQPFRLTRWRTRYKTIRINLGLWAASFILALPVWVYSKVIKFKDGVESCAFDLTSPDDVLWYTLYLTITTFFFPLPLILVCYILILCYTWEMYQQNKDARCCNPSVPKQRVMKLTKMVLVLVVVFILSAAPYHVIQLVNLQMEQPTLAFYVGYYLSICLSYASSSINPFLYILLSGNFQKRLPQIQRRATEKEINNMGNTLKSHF
Sequence of Melanin-concentrating hormone receptor 1 (Mus musculus, UniProt Q8JZL2) (Q8JZL2 whole entry): as the sequence (Q8JZL2 whole entry) above

As a reminder, the Ki is a measure of affinity in units of concentration, obtained from inhibition or displacement. Low values mean higher affinity, high ones lower affinity. As to `C[C@]1(c2cccc(C#N)c2)CC[C@H](N(CCN2CC[C@@H](O)C2)C(=O)Nc2ccc(F)c(C(F)(F)F)c2)CC1`, the inhibitory constant (Ki) in data set [1] was over 3000 nM; in [2], 391 nM.

For the compound `N#Cc1cccc(-c2ccc(N(CCN3CC[C@@H](O)C3)C(=O)Nc3ccc(F)c(C(F)(F)F)c3)cc2)c1`, the Ki is over 3000 nM in data set [1], 8.9 nM in [2] and 9.6 nM in data set [4]. This compound also gave a Kb in data set [3] of 2 nM.

In turn, `CC(=O)N(C)C1CCN(c2ccc(NC(=O)N3CCC(c4ccc(Cl)cc4)CC3)cc2)C1` (configuration not stated) came in with a Reduction in the data set with Mus musculus [5] of 64%.

Broadly, the AUC is the area under the concentration-time curve, a measure of exposure. Read a high AUC as high exposure. The term inhibition denotes the change of the read-out against control, counted positive when it falls. The clearance is a measure of how efficiently the substance is removed, as volume per time. A high value points to efficient removal. In general, half-life refers to how long it takes for the measured level to halve. A low value points to fast loss. Usually bioavailability stands for dose-corrected exposure relative to a reference, in per cent. Higher therefore signals much systemic uptake. For `CN1CCN(CCCCN(C(=O)Nc2ccc(F)c(C(F)(F)F)c2)[C@@H]2CC[C@]3(c4ccc(C#N)cc4)C[C@H]23)CC1`, in data set [6], the AUC amounted to 2140 ng·h/mL. Further, the inhibition worked out at 58% in [7] and 99% in data set [15]. For the same compound, the clearance in data set [8] was 21.8 mL/min/kg. Also, the “Vd(ss)” value in [9] was 5.6 L/kg. For the same compound, the inhibitory constant (Ki) in [1] is over 3000 nM; in [2] it was 2.7 nM; in data set [4], 3 nM. In addition, the Efficacy is reported as 78.1% in the data set on Mus musculus [10], 77.3% in the data set on Mus musculus [11] and 76% in the data set with Mus musculus [13]. Besides, the Kb in [3] was determined as 1.9 nM. Besides, the half-life in data set [12] is 4 h. The compound further gave a bioavailability in [14] of 27%.

Regarding `CN(C)c1nc(N[C@H]2CC[C@@H](NC(=O)c3ccc(F)c(F)c3)CC2)nc2ccccc12`, the Efficacy in the data set with Rattus norvegicus [16] is 20%.

On to `N#Cc1ccc([C@]23CC[C@@H](N(CCN4CCCC4)C(=O)Nc4cc(Cl)cc(Cl)c4)[C@H]2C3)cc1`, for which the inhibitory constant (Ki) in [1] is over 3000 nM; in data set [2] it was 18 nM. Moreover, the Efficacy in the data set on Mus musculus [10] was determined as 94.7%; with Mus musculus [11], 78.4%; in the data set on Mus musculus [13] it was 86.6%. Further, the inhibition in data set [15] was found to be 76%.

For the compound `C[C@]1(c2cccc(C#N)c2)CC[C@@H](N(CCN2CC[C@@H](O)C2)C(=O)Nc2ccc(F)c(C(F)(F)F)c2)CC1`, the Ki in data set [1] and in data set [2] was over 3000 nM each time.

On to `CN(C)CC1CCc2cc(NC(=O)c3ccc(-c4ccc(F)cc4)cc3)ccc2C1` (configuration not stated), for which the Suppression in the data set on Rattus norvegicus [17] is listed as over 90%.

As for `N#Cc1cccc([C@H]2CC[C@H](N(CCN3CC[C@@H](O)C3)C(=O)Nc3ccc(F)c(C(F)(F)F)c3)CC2)c1`, the results for the Ki in data set [1] and in data set [2] were over 3000 nM and 215 nM, respectively.

Regarding `N#Cc1cccc([C@]23CC[C@@H](N(CCN4CC[C@@H](O)C4)C(=O)Nc4ccc(F)c(Cl)c4)CC2C3)c1` (some centres not stated), the values for the Ki in [1] and in data set [4] were over 3000 nM and 10.7 nM, respectively.

`N#Cc1ccccc1[C@]12CC[C@@H](N(CCN3CC[C@@H](O)C3)C(=O)Nc3ccc(F)c(C(F)(F)F)c3)[C@H]1C2`: the Ki in [1] is over 3000 nM; in [2], 7.1 nM. Further, the Efficacy with Mus musculus [10] stood at 80.8%; in the data set on Mus musculus [11], 65.7%; in the data set with Mus musculus [13], 68.2%. Also, the inhibition in data set [15] is 81%.

Consider `N#Cc1cccc([C@@]23CC[C@@H](N(CCN4CC[C@@H](O)C4)C(=O)Nc4ccc(F)c(Cl)c4)C[C@@H]2C3)c1`, for which the inhibition was 8% in [7] and 62% in [15]. For the same compound, the inhibitory constant (Ki) was over 3000 nM in [1] and 7.8 nM in [4]. Further, the Efficacy was 98.6% with Mus musculus [10], 80% in the data set on Mus musculus [11] and 99% with Mus musculus [13].

Consider `N#Cc1cccc(C2=CCC(N(CCN3CCCC3)C(=O)Nc3ccc(F)c(Cl)c3)CC2)c1` (configuration not stated), for which the inhibitory constant (Ki) was over 3000 nM in [1] and 3 nM in data set [2]. In [3], this compound displayed a Kb of 9 nM.

`N#Cc1cccc([C@]23CC[C@@H](N(CCN4CC[C@@H](O)C4)C(=O)Nc4ccc(F)c(Cl)c4)C[C@H]2C3)c1`: the figures for the inhibition in data set [7] and in data set [15] were 13% and 50%, respectively. Besides, the inhibition constant Ki in [1] is over 3000 nM; in data set [4] it was 5.9 nM. The Efficacy was found to be 94.9% in the data set on Mus musculus [10], 85% in the data set on Mus musculus [11] and 93.6% in the data set on Mus musculus [13].

`Cc1cc(N(C)CCN(C)C)nc2ccc(NC(=O)/C=C/c3ccc(OC(F)(F)F)cc3)cc12` registered a Reduction in the data set with Rattus norvegicus [18] of over 30%.

Consider `N#Cc1cccc([C@H]2CC[C@@H](N(CCN3CC[C@@H](O)C3)C(=O)Nc3ccc(F)c(C(F)(F)F)c3)CC2)c1`, for which the Ki was over 3000 nM in [1] and 2020 nM in data set [2].

In turn, `N#Cc1cccc([C@@]23CC[C@@H](N(CCN4CC[C@@H](O)C4)C(=O)Nc4ccc(F)c(Cl)c4)CC2C3)c1` (some centres not stated) gave a Ki in data set [1] of over 3000 nM.
